Tests used:
Assay type in all cases: in vivo
[1] = system: lithium pilocarpine-induced status epilepticus; assay: Pilocarpine-induced status epilepticus rat model
Method: While most seizures are often short duration events that resolve spontaneously, status epilepticus (SE) events are characterized by continuous epileptic seizures or a series of seizures lasting longer than 30 minutes. Typically, treatment of SE requires emergency room intervention with either diazepam or lorazepam, immediately followed by phenytoin or phenobarbital. However, up to 15% of SE episodes can be refractory to these conventional therapies, thus identifying novel treatments that can be applied in the drug-refractory period, i.e. benzodiazepine-resistant SE, is of critical value to the clinical management of SE. The lithium-pilocarpine model is used to study the effects of a test compound on benzodiazepine-resistant SE. Sprague Dawley rats (n=8 per group; 100-150 g) are injected with lithium chloride (LiCl) solution (127 mg/kg). Animals are then used for the lithium pilocarpine-induced SE test 20-24 hours following LiCl injection. On the day of the test, animals are weighed and then injected with pilocarpine (50 mg/kg; i.p.) before being placed in an observation cage. In the initial convulsive-SE behavioral observation studies, adult rats receive a dose of the investigational compound, which was found in rat MES quantification to produce MMI. […] The ED50 and ED97 in this behavioral assay (30 minute time point) are determined for promising investigational compounds.

audiogenic seizure (AGS) = assay: Frings AGS-susceptible mouse model; details: ip, read-out: ED50, block of AGS
Text: Frings audiogenic seizure (AGS)-susceptible mice model examines the ability of an investigational drug to alter the onset and/or severity of seizures in a genetic mouse model of seizure susceptibility. Mice are genetically susceptible to sound-induced reflex seizures. Their seizure phenotype is characterized by wild running, loss of righting reflex, tonic flexion, and tonic extension in response to high-intensity sound stimulation. […] For example, the prototypical anticonvulsants phenytoin and ethosuximide display widely divergent clinical spectrums in humans, but are both active against sound-induced seizures in mice. Yet, the preclinical utility of this animal model rests in the useful information that can be obtained within a genetically susceptible model of seizures. Further, efficacy in this model provides proof of concept of brain bioavailability following systemic administration. […] At the time of peak effect as determined in the MES test (Test 4 in CF1 mice), individual mice are placed in a round plexiglass jar (diameter, 15 cm; height, 18 cm) and exposed to a sound stimulus of 110 decibels (11 KHz) delivered for 20 sec. […] The severity of a seizure may also be quantitated by assigning a numerical score to the observed response, e.g. no response—0; wild running for <10 sec—1; wild running for >10 sec—2; clonic seizure—3; forelimb extension/hind limb flexion—4; tonic seizure—5.

[2] = system: formalin-induced paw licking; assay: Mouse formalin test; details: 41 mg/kg i.p.; most pronounced in second (late) phase
Method: The formalin test is performed according to the method of Tjolsen et al. Pain, 1992. 51(1). An injection of 0.5% formalin (Sigma) is made into the planter region of the right hind paw of an adult (26-30 g) male CF-1 mouse. Sub-dermal formalin injection elicits a distinct behavioral profile characterized by the mouse licking the affected paw. The behavior is characteristically biphasic in nature. For example, immediately following the injection the mouse licks the paw intensely for approximately 10 min. This is referred to as phase 1 (or, the acute phase) and is followed by a brief latent period (<5 minutes) where there is little behavioral activity. A more prolonged period of about 20-30 min of activity then ensues, which constitutes phase 2 (or, the inflammatory phase). […] The area under the curve (AUG) is calculated for both the acute and inflammatory phases of the licking response for individual animals in both the test and control groups. The percent of control AUG for drug-treated animal groups is determined using the Graph-Pad Prism Version 3.03. The total AUG for each phase of the test group is also calculated and converted to percentage of total AUG of control for each phase. The average and S.E.M. for both the drug treated and control percentages are calculated and tested for significant difference.

Row | Structure (SMILES) | effect in chemically induced SE, administered 30 minutes after the appearance of seizures ([1]; 130 mg/kg) | effect in chemically induced SE, administered at the time of the chemical insult ([1]; time zero, 65 mg/kg) | ED50 (audiogenic seizure (AGS)) [mg/kg] | number of paw licks [2]
1 | C[C@@H](Oc1cc(Cl)cc(C(F)(F)F)c1)C(N)=O [I(D), (2R)-2-[3-chloro-5-(trifluoromethyl)-phenoxy]propanamide] | effective | effective | 28.9 ± 3.08 | 
2 | NC(=O)COc1cc(C(F)(F)F)cc(C(F)(F)F)c1 [I(F), 2-[3,5 bis(trifluoromethyl)-phenoxy]acetamide;] |  |  |  | significant decrease
